Consider 12 compounds from publication PMC12664589 (Journal of Structural Biology: X, 2025).

The target of the first experiment is CpNce103p (Candida parapsilosis, UniProt G8B6R8). Put plainly: biochemical. In kind it is biochemical.
Conditions: not given
What is called Ki is the equilibrium dissociation constant of an inhibitor or competing ligand from its target. `NCc1ccc(S(N)(=O)=O)cc1` [Compound 2, 4-(aminomethyl)benzenesulfonamide] yielded an inhibition constant Ki of 3170 µM.

For the compound `O=[N+]([O-])c1ccccc1S(=O)(=O)Cl` [Compound 3, 2-Nitrobenzenesulfonyl chloride], the Ki was 869 µM.

In the case of `C#CCCS(N)(=O)=O` [Compound 4, but-3-yne-1-sulfonamide], the affinity corresponds to a Ki of 933 µM.

In turn, `NS(=O)(=O)c1ccccc1` [Compound 5, Benzenesulfonamide] had an inhibitory constant (Ki) of 922 µM.

The compound `NN=C(c1ccccc1)c1ccccc1` [Compound 7, Benzophenone hydrazone] yielded a Ki of 302 µM.

As to `Nc1ccc(S(N)(=O)=O)cc1` [Compound 9, Sulfanilamide], the inhibition constant Ki is 825 µM.

On to `[N-]=[N+]=NCC(=O)NCCc1ccc(S(N)(=O)=O)cc1` [Compound 10, 2-azido-N-(4-sulfamoylphenethyl)acetamide], for which the affinity corresponds to a Ki of 1510 µM.

In turn, `NS(=O)(=O)c1ccc([N+](=O)[O-])cc1` [Compound 13, 4-Nitrobenzenesulfonamide] yielded a Ki of 188 µM.

Take `NS(=O)(=O)c1cc(C(=O)O)c(NCc2ccccc2)cc1Cl` [Compound 14, 2-(benzylamino)-4-chloro-5-sulfamoylbenzoic acid]: the affinity corresponds to a Ki of 377 µM.

As to `N[C@@H](Cc1c[nH]c2ccccc12)C(=O)O` [Compound 15, L-Tryptophan], the Ki came out at 842 µM.

`NS(=O)(=O)C(F)(F)F` [Compound 16, Trifluoromethanesulfonamide] yielded an inhibitory constant (Ki) of 2.2 µM.

Staying with this experiment, now noted: pH 7.5; read-out: Ki.
Take `NS(N)(=O)=O` [Compound 8, Sulfamide]: the Ki was 1600 µM.
